Patent publication US6593339B1, “Use of compounds as antibacterial agents” (AstraZeneca AB, priority 1999, dated 2003)

Test system: Helicobacter pylori Reference Strain NCTC 11 637
Assay: Agar well diffusion test: inhibition zones around wells on blood agar plates
Assay type: cell-based
Conditions: 30 μl per 3 mm well, incubated four days
Experimental: Strain: Helicobacter pylori Reference Strain NCTC 11 637 (National Type Culture Collection, from Smittskyddsinstitutet in Solna, Sweden), an Antibiotic Sensitive Reference Strain
Helicobacter pylori was grown on blood agar plates, having a diameter of 90 mm. for three days under microaerophilic conditions at 37° C. The bacteria were suspended in PBS (phosphate buffer saline) to approximately 10^8 cfu/ml. Approximately 2 ml of the suspension was added to one agar plate and spread even on the surface of the agar. Overflow was removed with a syringe. Wells, like small holes, 3 mm in diameter, were made in the agarplate by removing agar. Three wells per plate were made. […] 30 μl of the solution was added to the wells. The plates were incubated for four days before they were checked for inhibition zones around the wells.

Compound: COc1ccc2cc([C@H](C)C(=O)O)ccc2c1 [Naproxen]
- zone of inhibition at 10000 µg/mL (Helicobacter pylori, NCTC11, 96 h, stock solution 10000 μg/ml, read-out: inhibition zone around each well): 16.6 mm
- inhibition zone around each well (stock solution 100 μg/ml): No inhibition zones
- inhibition zone around each well (stock solution 1000 μg/ml): No inhibition zones

Compound: COc1ccc2cc(C(C)C(=O)OCCCCO[N+](=O)[O-])ccc2c1 (stereo not drawn) [formula Ia]
- zone of inhibition at 100 µg/mL (Helicobacter pylori, NCTC11, 96 h, stock solution 100 μg/ml, read-out: inhibition zone around each well): 10.4 mm
- zone of inhibition at 1000 µg/mL (Helicobacter pylori, NCTC11, 96 h, stock solution 1000 μg/ml, read-out: inhibition zone around each well): 13 mm
- inhibition zone around each well (stock solution 10000 μg/ml): large
- inhibition zone around each well (stock solution 100000 μg/ml): large

Compound: CC(=O)N[C@H](C(=O)O)C(C)(C)SN=O [SNAP, S-nitroso-N-acetyl-penicillamin]
- inhibition zone around each well (stock solution 10000 μg/ml): No inhibition zones

Compound: C[S+](C)[O-] [DMSO, Di-methyl-sulphate-oxide]
- inhibition zone around each well (solution 20 μg/ml): No inhibition zones
